Earlier results on 1 compound are cited in patent US8309490B2, “Low VOC and stable plant growth regulator liquid and granule compositions” (Valent BioSciences Corporation, priority 2009, dated 2012).

The conditions of this data set: at 25° C.

In the case of `O=C(Nc1ccccc1)Nc1ccnc(Cl)c1` [CPPU, forchlorfenuron], the water solubility is 39 ppm.
